Measured values taken from the NIST ThermoML archive (doi:10.1016/j.jct.2014.01.006).
Where “and” joins values, the source holds several entries; their conditions need not be identical. Equal values may be shown once. ± gives the expanded uncertainty stated by the source.

Tests used:
[1] = molar heat capacity at saturation pressure
[2] = for vapor or sublimation pressure: Liquid, Ebulliometric method (Recirculating still); for Triple point temperature: Adiabatic calorimetry
[3] = Molar enthalpy of transition or fusion; settings: Crystal; Adiabatic calorimetry

c1ccc(-c2ccc3ccccc3c2)cc1 [2-phenylnaphthalene]
molar heat capacity ([1]; 5.559 K, Metastable crystal, Vacuum adiabatic calorimetry): 0.7317 ± 0.025 J/K/mol
molar heat capacity ([1]; 6.48 K, Metastable crystal, Vacuum adiabatic calorimetry): 1.172 ± 0.042 J/K/mol
molar heat capacity ([1]; 7.437 K, Metastable crystal, Vacuum adiabatic calorimetry): 1.821 ± 0.058 J/K/mol
molar heat capacity ([1]; 8.415 K, Metastable crystal, Vacuum adiabatic calorimetry): 2.519 ± 0.083 J/K/mol
molar heat capacity ([1]; 9.445 K, Metastable crystal, Vacuum adiabatic calorimetry): 3.484 ± 0.11 J/K/mol
molar heat capacity ([1]; 10.55 K, Metastable crystal, Vacuum adiabatic calorimetry): 4.639 ± 0.042 J/K/mol
molar heat capacity ([1]; 11.76 K, Metastable crystal, Vacuum adiabatic calorimetry): 5.912 ± 0.05 J/K/mol
molar heat capacity ([1]; 13.12 K, Metastable crystal, Vacuum adiabatic calorimetry): 7.541 ± 0.067 J/K/mol
molar heat capacity ([1]; 14.58 K, Metastable crystal, Vacuum adiabatic calorimetry): 9.304 ± 0.075 J/K/mol
molar heat capacity ([1]; 16.16 K, Metastable crystal, Vacuum adiabatic calorimetry): 11.42 ± 0.083 J/K/mol
molar heat capacity ([1]; 17.89 K, Metastable crystal, Vacuum adiabatic calorimetry): 13.64 ± 0.1 J/K/mol
molar heat capacity ([1]; 19.78 K, Metastable crystal, Vacuum adiabatic calorimetry): 16.13 ± 0.11 J/K/mol
molar heat capacity ([1]; 21.84 K, Metastable crystal, Vacuum adiabatic calorimetry): 18.86 ± 0.12 J/K/mol
molar heat capacity ([1]; 24.08 K, Metastable crystal, Vacuum adiabatic calorimetry): 21.79 ± 0.14 J/K/mol
molar heat capacity ([1]; 26.55 K, Metastable crystal, Vacuum adiabatic calorimetry): 25.04 ± 0.15 J/K/mol
molar heat capacity ([1]; 29.3 K, Metastable crystal, Vacuum adiabatic calorimetry): 28.54 ± 0.17 J/K/mol
molar heat capacity ([1]; 32.36 K, Metastable crystal, Vacuum adiabatic calorimetry): 32.33 ± 0.083 J/K/mol
molar heat capacity ([1]; 35.77 K, Metastable crystal, Vacuum adiabatic calorimetry): 36.35 ± 0.091 J/K/mol
molar heat capacity ([1]; 39.57 K, Metastable crystal, Vacuum adiabatic calorimetry): 40.62 ± 0.1 J/K/mol
molar heat capacity ([1]; 43.81 K, Metastable crystal, Vacuum adiabatic calorimetry): 45.16 ± 0.11 J/K/mol
molar heat capacity ([1]; 48.55 K, Metastable crystal, Vacuum adiabatic calorimetry): 49.75 ± 0.11 J/K/mol
molar heat capacity ([1]; 53.87 K, Metastable crystal, Vacuum adiabatic calorimetry): 54.71 ± 0.12 J/K/mol
molar heat capacity ([1]; 54.57 K, Metastable crystal, Vacuum adiabatic calorimetry): 55.24 ± 0.12 J/K/mol
molar heat capacity ([1]; 59.82 K, Metastable crystal, Vacuum adiabatic calorimetry): 59.78 ± 0.12 J/K/mol
molar heat capacity ([1]; 59.83 K, Metastable crystal, Vacuum adiabatic calorimetry): 59.82 ± 0.13 J/K/mol
molar heat capacity ([1]; 65.64 K, Metastable crystal, Vacuum adiabatic calorimetry): 64.42 ± 0.13 J/K/mol
molar heat capacity ([1]; 66.41 K, Metastable crystal, Vacuum adiabatic calorimetry): 64.99 ± 0.14 J/K/mol
molar heat capacity ([1]; 72.14 K, Metastable crystal, Vacuum adiabatic calorimetry): 69.36 ± 0.14 J/K/mol
molar heat capacity ([1]; 79.33 K, Metastable crystal, Vacuum adiabatic calorimetry): 74.52 ± 0.15 J/K/mol
molar heat capacity ([1]; 84.66 K, Metastable crystal, Vacuum adiabatic calorimetry): 78.26 ± 0.16 J/K/mol
molar heat capacity ([1]; 87.38 K, Metastable crystal, Vacuum adiabatic calorimetry): 80.02 ± 0.17 J/K/mol
molar heat capacity ([1]; 91.53 K, Metastable crystal, Vacuum adiabatic calorimetry): 82.9 ± 0.22 J/K/mol
molar heat capacity ([1]; 96.29 K, Metastable crystal, Vacuum adiabatic calorimetry): 86.19 ± 0.22 J/K/mol
molar heat capacity ([1]; 100.11 K, Metastable crystal, Vacuum adiabatic calorimetry): 88.71 ± 0.22 J/K/mol
molar heat capacity ([1]; 109.67 K, Metastable crystal, Vacuum adiabatic calorimetry): 95.07 ± 0.23 J/K/mol
molar heat capacity ([1]; 119.51 K, Metastable crystal, Vacuum adiabatic calorimetry): 101.67 ± 0.23 J/K/mol
molar heat capacity ([1]; 129.29 K, Metastable crystal, Vacuum adiabatic calorimetry): 108.34 ± 0.24 J/K/mol
molar heat capacity ([1]; 139.13 K, Metastable crystal, Vacuum adiabatic calorimetry): 115.15 ± 0.25 J/K/mol
molar heat capacity ([1]; 149.04 K, Metastable crystal, Vacuum adiabatic calorimetry): 122.22 ± 0.26 J/K/mol
molar heat capacity ([1]; 159.05 K, Metastable crystal, Vacuum adiabatic calorimetry): 129.45 ± 0.27 J/K/mol
molar heat capacity ([1]; 169.13 K, Metastable crystal, Vacuum adiabatic calorimetry): 137.04 ± 0.27 J/K/mol
molar heat capacity ([1]; 179.22 K, Metastable crystal, Vacuum adiabatic calorimetry): 144.69 ± 0.28 J/K/mol
molar heat capacity ([1]; 189.28 K, Metastable crystal, Vacuum adiabatic calorimetry): 152.55 ± 0.29 J/K/mol
molar heat capacity ([1]; 199.33 K, Metastable crystal, Vacuum adiabatic calorimetry): 160.58 ± 0.3 J/K/mol
molar heat capacity ([1]; 210.43 K, Metastable crystal, Vacuum adiabatic calorimetry): 169.63 ± 0.32 J/K/mol
molar heat capacity ([1]; 222.54 K, Metastable crystal, Vacuum adiabatic calorimetry): 179.67 ± 0.32 J/K/mol
molar heat capacity ([1]; 234.7 K, Metastable crystal, Vacuum adiabatic calorimetry): 190.12 ± 0.33 J/K/mol
molar heat capacity ([1]; 246.9 K, Metastable crystal, Vacuum adiabatic calorimetry): 200.49 ± 0.35 J/K/mol
molar heat capacity ([1]; 260.13 K, Metastable crystal, Vacuum adiabatic calorimetry): 212.11 ± 0.36 J/K/mol
molar heat capacity ([1]; 274.34 K, Metastable crystal, Vacuum adiabatic calorimetry): 224.81 ± 0.37 J/K/mol
molar heat capacity ([1]; 281.75 K, Metastable crystal, Vacuum adiabatic calorimetry): 231.62 ± 0.38 J/K/mol
molar heat capacity ([1]; 287.18 K, Metastable crystal, Vacuum adiabatic calorimetry): 236.87 ± 0.39 J/K/mol
molar heat capacity ([1]; 288.45 K, Metastable crystal, Vacuum adiabatic calorimetry): 238 ± 0.39 J/K/mol
molar heat capacity ([1]; 288.88 K, Metastable crystal, Vacuum adiabatic calorimetry): 238.28 ± 0.39 J/K/mol
molar heat capacity ([1]; 289.67 K, Metastable crystal, Vacuum adiabatic calorimetry): 239.32 ± 0.39 J/K/mol
molar heat capacity ([1]; 290.86 K, Metastable crystal, Vacuum adiabatic calorimetry): 240.77 ± 0.39 J/K/mol
molar heat capacity ([1]; 297.62 K, Metastable crystal, Vacuum adiabatic calorimetry): 247.26 ± 0.4 J/K/mol
molar heat capacity ([1]; 302.22 K, Metastable crystal, Vacuum adiabatic calorimetry): 251.81 ± 0.41 J/K/mol
molar heat capacity ([1]; 303.66 K, Metastable crystal, Vacuum adiabatic calorimetry): 253.46 ± 0.41 J/K/mol
molar heat capacity ([1]; 304.26 K, Metastable crystal, Vacuum adiabatic calorimetry): 253.82 ± 0.41 J/K/mol
molar heat capacity ([1]; 305.95 K, Metastable crystal, Vacuum adiabatic calorimetry): 255.73 ± 0.42 J/K/mol
molar heat capacity ([1]; 316.27 K, Metastable crystal, Vacuum adiabatic calorimetry): 265.74 ± 0.42 J/K/mol
molar heat capacity ([1]; 319.32 K, Metastable crystal, Vacuum adiabatic calorimetry): 269.07 ± 0.42 J/K/mol
molar heat capacity ([1]; 319.63 K, Metastable crystal, Vacuum adiabatic calorimetry): 269.43 ± 0.42 J/K/mol
molar heat capacity ([1]; 323.18 K, Metastable crystal, Vacuum adiabatic calorimetry): 273.51 ± 0.43 J/K/mol
molar heat capacity ([1]; 328.64 K, Metastable crystal, Vacuum adiabatic calorimetry): 281.65 ± 0.44 J/K/mol
molar heat capacity ([1]; 334.1 K, Crystal, Vacuum adiabatic calorimetry): 295.45 ± 0.46 J/K/mol
molar heat capacity ([1]; 339.55 K, Crystal, Vacuum adiabatic calorimetry): 300.3 ± 0.47 J/K/mol
molar heat capacity ([1]; 340.55 K, Crystal, Vacuum adiabatic calorimetry): 301.83 ± 0.47 J/K/mol
molar heat capacity ([1]; 345.85 K, Crystal, Vacuum adiabatic calorimetry): 308.66 ± 0.47 J/K/mol
molar heat capacity ([1]; 346.7 K, Crystal, Vacuum adiabatic calorimetry): 310.38 ± 0.47 J/K/mol
molar heat capacity ([1]; 352.89 K, Crystal, Vacuum adiabatic calorimetry): 319.98 ± 0.49 J/K/mol
molar heat capacity ([1]; 354.52 K, Crystal, Vacuum adiabatic calorimetry): 323.81 ± 0.49 J/K/mol
molar heat capacity ([1]; 355.25 K, Crystal, Vacuum adiabatic calorimetry): 323.51 ± 0.49 J/K/mol
molar heat capacity ([1]; 356.41 K, Crystal, Vacuum adiabatic calorimetry): 326.01 ± 0.5 J/K/mol
molar heat capacity ([1]; 360.85 K, Crystal, Vacuum adiabatic calorimetry): 334.71 ± 0.51 J/K/mol
molar heat capacity ([1]; 364.78 K, Crystal, Vacuum adiabatic calorimetry): 343.22 ± 0.52 J/K/mol
molar heat capacity ([1]; 365.47 K, Crystal, Vacuum adiabatic calorimetry): 344.57 ± 0.52 J/K/mol
molar heat capacity ([1]; 365.99 K, Crystal, Vacuum adiabatic calorimetry): 347.25 ± 0.53 J/K/mol
molar heat capacity ([1]; 368.76 K, Crystal, Vacuum adiabatic calorimetry): 353.17 ± 0.53 J/K/mol
molar heat capacity ([1]; 381.15 K, Liquid, Vacuum adiabatic calorimetry): 364.06 ± 0.54 J/K/mol
molar heat capacity ([1]; 381.64 K, Liquid, Vacuum adiabatic calorimetry): 364.18 ± 0.54 J/K/mol
molar heat capacity ([1]; 382.95 K, Liquid, Vacuum adiabatic calorimetry): 365.06 ± 0.54 J/K/mol
molar heat capacity ([1]; 388.39 K, Liquid, Vacuum adiabatic calorimetry): 368.05 ± 0.55 J/K/mol
molar heat capacity ([1]; 390.22 K, Liquid, Vacuum adiabatic calorimetry): 369.13 ± 0.55 J/K/mol
molar heat capacity ([1]; 405.19 K, Liquid, Vacuum adiabatic calorimetry): 377.51 ± 0.56 J/K/mol
molar heat capacity ([1]; 410.1 K, Liquid, Small sample (50 mg) DSC): 380.3 ± 9.3 J/K/mol and 382.63 ± 9.4 J/K/mol
molar heat capacity ([1]; 422.04 K, Liquid, Vacuum adiabatic calorimetry): 386.86 ± 0.57 J/K/mol
molar heat capacity ([1]; 430 K, Liquid, Small sample (50 mg) DSC): 394.6 ± 9.6 J/K/mol and 391.03 ± 9.6 J/K/mol
molar heat capacity ([1]; 436.24 K, Liquid, Vacuum adiabatic calorimetry): 394.72 ± 0.57 J/K/mol
molar heat capacity ([1]; 450 K, Liquid, Small sample (50 mg) DSC): 405.58 ± 9.9 J/K/mol and 401.51 ± 9.8 J/K/mol
molar heat capacity ([1]; 470.1 K, Liquid, Small sample (50 mg) DSC): 411.15 ± 10 J/K/mol and 413.48 ± 10 J/K/mol
molar heat capacity ([1]; 490 K, Liquid, Small sample (50 mg) DSC): 424.7 ± 10 J/K/mol and 423.46 ± 10 J/K/mol
molar heat capacity ([1]; 510 K, Liquid, Small sample (50 mg) DSC): 434.93 ± 11 J/K/mol and 427.36 ± 10 J/K/mol
molar heat capacity ([1]; 530.1 K, Liquid, Small sample (50 mg) DSC): 446.82 ± 11 J/K/mol and 444.24 ± 11 J/K/mol
molar heat capacity ([1]; 550.1 K, Liquid, Small sample (50 mg) DSC): 457.21 ± 11 J/K/mol and 455.97 ± 11 J/K/mol
molar heat capacity ([1]; 570.1 K, Liquid, Small sample (50 mg) DSC): 468.27 ± 11 J/K/mol and 467.27 ± 11 J/K/mol
molar heat capacity ([1]; 590.1 K, Liquid, Small sample (50 mg) DSC): 477.92 ± 12 J/K/mol and 476.09 ± 12 J/K/mol
molar heat capacity ([1]; 610.1 K, Liquid, Small sample (50 mg) DSC): 484.48 ± 12 J/K/mol and 484.15 ± 12 J/K/mol
vapor or sublimation pressure ([2]; 482.85 K): 1.996 ± 0.0082 kPa
vapor or sublimation pressure ([2]; 502.83 K): 3.998 ± 0.0084 kPa
vapor or sublimation pressure ([2]; 511.75 K): 5.335 ± 0.0089 kPa
vapor or sublimation pressure ([2]; 524.93 K): 7.993 ± 0.0095 kPa
vapor or sublimation pressure ([2]; 534.9 K): 10.67 ± 0.01 kPa
vapor or sublimation pressure ([2]; 542.89 K): 13.33 ± 0.011 kPa
vapor or sublimation pressure ([2]; 551.2 K): 16.66 ± 0.013 kPa
vapor or sublimation pressure ([2]; 558.16 K): 19.95 ± 0.014 kPa
vapor or sublimation pressure ([2]; 567.23 K): 25.03 ± 0.016 kPa
vapor or sublimation pressure ([2]; 576.35 K): 31.16 ± 0.018 kPa
vapor or sublimation pressure ([2]; 585.57 K): 38.56 ± 0.022 kPa
vapor or sublimation pressure ([2]; 594.82 K): 47.36 ± 0.025 kPa
vapor or sublimation pressure ([2]; 604.12 K): 57.8 ± 0.027 kPa
Triple point temperature ([2]; Crystal): 374.77 ± 0.039 K
Triple point temperature ([2]; Metastable crystal): 331.4 ± 0.1 K
Molar enthalpy of transition or fusion [3]: 5.406 ± 0.00574 kcal/mol
